These results are taken from patent US12479849B2, “EGFR inhibitors for the treatment of cancer” (Hoffmann-La Roche Inc., priority 2019, dated 2025).

T1 sequence (P00533 25-1210 T790M/C797S/L858R): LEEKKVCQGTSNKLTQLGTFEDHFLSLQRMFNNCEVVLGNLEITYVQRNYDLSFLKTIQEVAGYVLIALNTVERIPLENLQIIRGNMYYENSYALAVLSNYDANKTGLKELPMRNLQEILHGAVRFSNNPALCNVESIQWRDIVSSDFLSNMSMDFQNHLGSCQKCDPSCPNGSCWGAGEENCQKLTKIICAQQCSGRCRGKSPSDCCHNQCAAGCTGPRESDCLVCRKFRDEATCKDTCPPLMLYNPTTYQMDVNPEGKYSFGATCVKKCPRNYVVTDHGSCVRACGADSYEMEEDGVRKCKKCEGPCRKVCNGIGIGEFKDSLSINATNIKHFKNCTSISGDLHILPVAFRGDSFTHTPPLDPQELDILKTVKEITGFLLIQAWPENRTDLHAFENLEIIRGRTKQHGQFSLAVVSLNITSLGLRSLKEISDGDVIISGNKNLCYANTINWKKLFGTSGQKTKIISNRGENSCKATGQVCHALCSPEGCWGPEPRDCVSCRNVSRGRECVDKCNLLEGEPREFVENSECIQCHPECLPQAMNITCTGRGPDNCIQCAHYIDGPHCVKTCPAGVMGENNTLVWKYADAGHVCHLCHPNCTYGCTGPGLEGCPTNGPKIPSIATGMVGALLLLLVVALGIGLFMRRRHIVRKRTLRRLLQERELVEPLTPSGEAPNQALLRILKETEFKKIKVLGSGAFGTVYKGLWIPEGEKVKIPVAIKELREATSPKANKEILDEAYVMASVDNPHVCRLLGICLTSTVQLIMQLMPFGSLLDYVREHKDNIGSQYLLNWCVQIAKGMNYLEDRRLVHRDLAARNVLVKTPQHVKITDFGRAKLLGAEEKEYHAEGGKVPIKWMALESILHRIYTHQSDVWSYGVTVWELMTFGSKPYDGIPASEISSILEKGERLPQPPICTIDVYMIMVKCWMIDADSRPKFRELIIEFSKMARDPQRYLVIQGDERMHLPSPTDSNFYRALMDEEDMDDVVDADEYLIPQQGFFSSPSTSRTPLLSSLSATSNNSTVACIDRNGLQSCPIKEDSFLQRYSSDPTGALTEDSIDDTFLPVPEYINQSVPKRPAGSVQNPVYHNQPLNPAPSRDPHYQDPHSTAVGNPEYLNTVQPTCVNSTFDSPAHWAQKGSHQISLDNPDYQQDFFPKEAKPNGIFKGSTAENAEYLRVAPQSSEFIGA

The assay has as its target T1, EGFR TMLRCS (Homo sapiens, UniProt P00533, C797S/L858R/T790M).
T1 construct: host or cells: BaF3-TMLRCS (Ba/F3 cells, kept under puromycin selection)
As to the kind of experiment: HTRF Phospho EGFR TMLRCS Assay (Cellular). The following applies: BaF3-TMLRCS cell line, 4 hours incubation, Phospho-EGFR HTRF readout. It is filed as cell-based. An outline of the steps:
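BaF3 cells expressing EGFR L858R/T790M/C797S, 20000/well, treated with compound in dose response for 4 h at 37 °C, 5% CO2. After lysis, phospho-EGFR detected by HTRF with cryptate and d2 antibodies over 4 h at room temperature. Signal taken as 665/616 nm ratio ×10000, normalized.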
On to `CCN1CCN(c2ccc(-c3cc(C)c4cn(C(C(=O)Nc5nccs5)c5ncn6c5C[C@@H](F)C6)nc4c3C)cc2)CC1` (stereo partly drawn) [Example 121, 2-(6-(4-(4-Ethylpiperazin-1-yl)phenyl)-4,7-dimethyl-2H-indazol-2-yl)-2-((R)-6-fluoro-6,7-dihydro-5H-pyrrolo[1,2-c]imidazol-1-yl)-N-(thiazol-2-yl)acetamide], for which half-maximal inhibition (IC50) required 8 nM.

`CCN(CC)CC1(c2ccc(-c3cc(C)c4cn(C(C(=O)Nc5nccs5)c5ncn6c5C[C@@H](F)C6)nc4c3C)cc2)CC1` (stereo partly drawn) [Example 122, 2-(6-(4-(1-((Diethylamino)methyl)cyclopropyl)phenyl)-4,7-dimethyl-2H-indazol-2-yl) ((R)-6-fluoro-6,7-dihydro-5H-pyrrolo[1,2-c]imidazol-1-yl)-N-(thiazol-2-yl)acetamide] showed an IC50 of 19 nM. In the case of `CCN(C)CCc1ccc(-c2cc(C)c3cn(C(C(=O)Nc4nccs4)c4ncn5c4C[C@@H](F)C5)nc3c2C)cc1` (stereo partly drawn) [Example 123], the IC50 turned out to be 15 nM. With `Cc1cc(-c2ccc(N3CCOCC3)nc2)c(C)c2nn(C(C(=O)Nc3nccs3)c3ncn4c3C[C@@H](F)C4)cc12` (stereo partly drawn) [Example 124, 2-(4,7-Dimethyl-6-(6-morpholinopyridin-3-yl)-2H-indazol-2-yl)-2-((R)-6-fluoro-6,7-dihydro-5H-pyrrolo[1,2-c]imidazol-1-yl)-N-(thiazol-2-yl)acetamide] the figure was 5 nM; with `CCc1c(-c2ccc(N3CCOCC3)cc2)cc(Cl)c2cn(C(C(=O)Nc3nccs3)c3ncn4c3C[C@@H](F)C4)nc12` (stereo partly drawn) [Example 125, 2-(4-Chloro-7-ethyl-6-(4-morpholinophenyl)-2H-indazol-2-yl)-2-((R)-6-fluoro-6,7-dihydro-5H-pyrrolo[1,2-c]imidazol-1-yl)-N-(thiazol-2-yl)acetamide], 11 nM. As for `Cc1cc(-c2ccc(N3CCOCC3)cc2)c(Cl)c2nn(C(C(=O)Nc3nccs3)c3ncn4c3CCC4)cc12` (stereo not drawn) [Example 126, 2-(7-Chloro-4-methyl-6-(4-morpholinophenyl)-2H-indazol-2-yl)-2-(6,7-dihydro-5H-pyrrolo[1,2-c]imidazol-1-yl)-N-(thiazol-2-yl)acetamide], half-maximal inhibition (IC50) was put at 9 nM.

`Cc1cc(-c2ccc(N3CCOCC3)cc2)c(Cl)c2nn(C(C(=O)Nc3nccs3)c3ncn4c3C[C@@H](F)C4)cc12` (stereo partly drawn) [Example 128, 2-(7-Chloro-4-methyl-6-(4-morpholinophenyl)-2H-indazol-2-yl)-2-((R)-6-fluoro-6,7-dihydro-5H-pyrrolo[1,2-c]imidazol-1-yl)-N-(thiazol-2-yl)acetamide] returned an IC50 of 5 nM. As for `COCCN1CCC(c2ccc(-c3cc(C)c4cn(C(C(=O)Nc5nccs5)c5ncn6c5C[C@@H](F)C6)nc4c3Cl)cc2)CC1` (stereo partly drawn) [Example 130, 2-(7-Chloro-6-(4-(1-(2-methoxyethyl)piperidin-4-yl)phenyl)-4-methyl-2H-indazol-2-yl)-2-((R)-6-fluoro-6,7-dihydro-5H-pyrrolo[1,2-c]imidazol-1-yl)-N-(thiazol-2-yl)acetamide], the figure is 12 nM. Molecule `O=C(Nc1nccs1)C(c1ncn2c1CCC2)n1cc2c(Cl)cc(-c3ccc(N4CCOCC4)cc3)c(Br)c2n1` (stereo not drawn) [Example 134, 2-(7-Bromo-4-chloro-6-(4-morpholinophenyl)-2H-indazol-2-yl)-2-(6,7-dihydro-5H-pyrrolo[1,2-c]imidazol-1-yl)-N-(thiazol-2-yl)acetamide] returned an IC50 of 32 nM.

The IC50 is the midpoint of a concentration-inhibition curve.
